Several values for one entry are separate records, joined by “and”; a condition that tells them apart may be missing. Identical values can stand only once. Like-named read-outs stand apart in the source and are kept apart here. One block for each compound: values may come before it.
Test system: forty-four human cancer cell lines
Assay: Cell proliferation assay (ATPlite, 72 hours) in the 44 cell line Oncolines panel
Assay type: cell-based

- IC50 (Homo sapiens, 769-P, cell line 769-P, read-out: cell panel IC50, 769-P): 0.113 µM
- IC50 (Homo sapiens, 786-0, cell line 786-0, read-out: cell panel IC50, 786-0): 0.125 µM
- IC50 (Homo sapiens, A 172, read-out: cell panel IC50, A-172, cell line A-172): 0.093 µM
- IC50 (Homo sapiens, A498, read-out: cell panel IC50, A-498, cell line A-498): 0.096 µM
- IC50 (Homo sapiens, A549, read-out: cell panel IC50, A-549, cell line A-549): 0.082 µM
- IC50 (Homo sapiens, A-375, cell line A375, read-out: cell panel IC50, A375): 0.038 µM
- IC50 (Homo sapiens, A-427, read-out: cell panel IC50, A-427, cell line A-427): 0.027 µM
- IC50 (Homo sapiens, ACHN, cell line ACHN, read-out: cell panel IC50, ACHN): 0.061 µM
- IC50 (Homo sapiens, AN3-CA, cell line AN3 CA, read-out: cell panel IC50, AN3 CA): 0.075 µM
- IC50 (Homo sapiens, AU565, read-out: cell panel IC50, AU-565, cell line AU-565): 0.073 µM
- IC50 (Homo sapiens, BT-20, cell line BT-20, read-out: cell panel IC50, BT-20): 0.19 µM
- IC50 (Homo sapiens, BT-549, read-out: cell panel IC50, BT-549, cell line BT-549): 0.076 µM
- IC50 (Homo sapiens, BXPC-3, cell line BxPC-3, read-out: cell panel IC50, BxPC-3): 0.172 µM
- IC50 (Homo sapiens, C-33-A, cell line C-33 A, read-out: cell panel IC50, C-33 A): 0.026 µM
- IC50 (Homo sapiens, CAL-27, cell line CAL 27, read-out: cell panel IC50, CAL 27): 0.021 µM
- IC50 (Homo sapiens, CCRF-CEM, cell line CCRF-CEM, read-out: cell panel IC50, CCRF-CEM): 0.017 µM
- IC50 (Homo sapiens, DLD-1, cell line DLD-1, read-out: cell panel IC50, DLD-1): 0.437 µM
- IC50 (Homo sapiens, FaDu, cell line FaDu, read-out: cell panel IC50, FaDu): 0.045 µM
- IC50 (Homo sapiens, HCT-15, cell line HCT-15, read-out: cell panel IC50, HCT-15): 0.237 µM
- IC50 (Homo sapiens, HCT-116, read-out: cell panel IC50, HCT-116, cell line HCT-116): 0.044 µM
- IC50 (Homo sapiens, Hs-578T, cell line Hs 578T, read-out: cell panel IC50, Hs 578T): 0.08 µM
- IC50 (Homo sapiens, Jurkat E6.1, cell line Jurkat E6.1, read-out: cell panel IC50, Jurkat E6.1): 0.026 µM
- IC50 (Homo sapiens, K562, read-out: cell panel IC50, K-562, cell line K-562): 0.055 µM
- IC50 (Homo sapiens, LoVo, cell line LoVo, read-out: cell panel IC50, LoVo): 0.049 µM
- IC50 (Homo sapiens, MG-63, cell line MG-63, read-out: cell panel IC50, MG-63): 0.056 µM
- IC50 (Homo sapiens, MOLT-4, cell line MOLT-4, read-out: cell panel IC50, MOLT-4): 0.012 µM
- IC50 (Homo sapiens, MeWo, cell line MeWo, read-out: cell panel IC50, MeWo): 0.204 µM
- IC50 (Homo sapiens, NCI-H82, cell line NCI-H82, read-out: cell panel IC50, NCI-H82): 0.052 µM
- IC50 (Homo sapiens, NCI-H460, cell line NCI-H460, read-out: cell panel IC50, NCI-H460): 0.021 µM
- IC50 (Homo sapiens, OVCAR-3, cell line OVCAR-3, read-out: cell panel IC50, OVCAR-3): 0.259 µM
- IC50 (Homo sapiens, RPMI-7951, cell line RPMI-7951, read-out: cell panel IC50, RPMI-7951): 0.028 µM
- IC50 (Homo sapiens, SK-N-AS, cell line SK-N-AS, read-out: cell panel IC50, SK-N-AS): 0.072 µM
- IC50 (Homo sapiens, SW48, cell line SW48, read-out: cell panel IC50, SW48): 0.208 µM
- IC50 (Homo sapiens, SW480, cell line SW480, read-out: cell panel IC50, SW480): 0.353 µM
- IC50 (Homo sapiens, SW-620, cell line SW620, read-out: cell panel IC50, SW620): 0.296 µM
- IC50 (Homo sapiens, U2OS, cell line U-2 OS, read-out: cell panel IC50, U-2 OS): 0.109 µM
- IC50 (Homo sapiens, U-87 MG, 72 h, U-87 MG cell line, ATPlite, 72 hours, read-out: IC50 in cell proliferation assay (table S5 cellpanel data)): 0.111 µM
- IC50 (Homo sapiens, cell line J82, read-out: cell panel IC50, J82): 0.151 µM
- IC50 (Homo sapiens, cell line PA-1, read-out: cell panel IC50, PA-1): 0.004 µM
- IC50 (Homo sapiens, cell line SJCRH30, read-out: cell panel IC50, SJCRH30): 0.071 µM
- IC50 (Homo sapiens, cell line SR, read-out: cell panel IC50, SR): 0.006 µM
- IC50 (U-87 MG cell line, ATPlite, 72 hours, read-out: IC50 in cell proliferation assay (table S5 cellpanel data)): 0.089 µM
- IC50 (cell line 769-P, read-out: cell panel IC50, 769-P): 0.142 µM and 0.144 µM
- IC50 (cell line 786-0, read-out: cell panel IC50, 786-0): 0.103 µM
- IC50 (cell line A375, read-out: cell panel IC50, A375): 0.035 µM and 0.051 µM
- IC50 (cell line ACHN, read-out: cell panel IC50, ACHN): 0.084 µM
- IC50 (cell line AN3 CA, read-out: cell panel IC50, AN3 CA): 0.081 µM and 0.094 µM
- IC50 (cell line BT-20, read-out: cell panel IC50, BT-20): 0.207 µM and 0.157 µM
- IC50 (cell line BxPC-3, read-out: cell panel IC50, BxPC-3): 0.227 µM and 0.286 µM
- IC50 (cell line CAL 27, read-out: cell panel IC50, CAL 27): 0.02 µM
- IC50 (cell line CCRF-CEM, read-out: cell panel IC50, CCRF-CEM): 0.02 µM
- IC50 (cell line DLD-1, read-out: cell panel IC50, DLD-1): 0.429 µM and 0.346 µM
- IC50 (cell line FaDu, read-out: cell panel IC50, FaDu): 0.047 µM and 0.057 µM
- IC50 (cell line HCT-15, read-out: cell panel IC50, HCT-15): 0.254 µM and 0.276 µM
- IC50 (cell line Hs 578T, read-out: cell panel IC50, Hs 578T): 0.089 µM and 0.058 µM
- IC50 (cell line J82, read-out: cell panel IC50, J82): 0.144 µM and 0.135 µM
- IC50 (cell line Jurkat E6.1, read-out: cell panel IC50, Jurkat E6.1): 0.031 µM and 0.024 µM
- IC50 (cell line LoVo, read-out: cell panel IC50, LoVo): 0.059 µM
- IC50 (cell line MG-63, read-out: cell panel IC50, MG-63): 0.067 µM and 0.087 µM
- IC50 (cell line MOLT-4, read-out: cell panel IC50, MOLT-4): 0.011 µM and 0.013 µM
- IC50 (cell line MeWo, read-out: cell panel IC50, MeWo): 0.226 µM and 0.264 µM
- IC50 (cell line NCI-H82, read-out: cell panel IC50, NCI-H82): 0.065 µM
- IC50 (cell line NCI-H460, read-out: cell panel IC50, NCI-H460): 0.025 µM
- IC50 (cell line OVCAR-3, read-out: cell panel IC50, OVCAR-3): 0.314 µM and 0.276 µM
- IC50 (cell line PA-1, read-out: cell panel IC50, PA-1): 0.00526 µM and 0.00646 µM
- IC50 (cell line RPMI-7951, read-out: cell panel IC50, RPMI-7951): 0.033 µM and 0.032 µM
- IC50 (cell line SJCRH30, read-out: cell panel IC50, SJCRH30): 0.062 µM and 0.043 µM
- IC50 (cell line SK-N-AS, read-out: cell panel IC50, SK-N-AS): 0.1 µM
- IC50 (cell line SR, read-out: cell panel IC50, SR): 0.00654 µM and 0.01 µM
- IC50 (cell line SW48, read-out: cell panel IC50, SW48): 0.112 µM and 0.121 µM
- IC50 (cell line SW480, read-out: cell panel IC50, SW480): 0.315 µM and 0.369 µM
- IC50 (cell line SW620, read-out: cell panel IC50, SW620): 0.354 µM and 0.446 µM
- IC50 (cell line U-2 OS, read-out: cell panel IC50, U-2 OS): 0.115 µM and 0.153 µM
- IC50 (read-out: cell panel IC50, A-172, cell line A-172): 0.095 µM
- IC50 (read-out: cell panel IC50, A-427, cell line A-427): 0.031 µM and 0.04 µM
- IC50 (read-out: cell panel IC50, A-498, cell line A-498): 0.092 µM and 0.091 µM
- IC50 (read-out: cell panel IC50, A-549, cell line A-549): 0.068 µM
- IC50 (read-out: cell panel IC50, AU-565, cell line AU-565): 0.094 µM and 0.079 µM
- IC50 (read-out: cell panel IC50, BT-549, cell line BT-549): 0.09 µM
- IC50 (read-out: cell panel IC50, HCT-116, cell line HCT-116): 0.062 µM and 0.064 µM
- IC50 (read-out: cell panel IC50, K-562, cell line K-562): 0.057 µM
Structure (SMILES): COc1cccc2c1C(=O)c1c(O)c3c(c(O)c1C2=O)C[C@@](O)(C(=O)CO)C[C@@H]3O[C@H]1C[C@H](N)[C@H](O)[C@H](C)O1 [doxorubicin]

Structure (SMILES): CCN(CC)CCNC(=O)c1c(C)[nH]c(/C=C2\C(=O)Nc3ccc(F)cc32)c1C [sunitinib]
- IC50 (Homo sapiens, 4-4 cell, read-out: cell panel IC50, J82): 3.5 µM
- IC50 (Homo sapiens, 4-4 cell, read-out: cell panel IC50, PA-1): 1.31 µM
- IC50 (Homo sapiens, 4-4 cell, read-out: cell panel IC50, SJCRH30): 3.14 µM
- IC50 (Homo sapiens, 4-4 cell, read-out: cell panel IC50, SR): 0.527 µM
- IC50 (Homo sapiens, 769-P, read-out: cell panel IC50, 769-P): 2.66 µM
- IC50 (Homo sapiens, 786-0, read-out: cell panel IC50, 786-0): 2.62 µM
- IC50 (Homo sapiens, A 172, read-out: cell panel IC50, A-172): 3.28 µM
- IC50 (Homo sapiens, A204, read-out: cell panel IC50, A-204): 4.08 µM
- IC50 (Homo sapiens, A498, read-out: cell panel IC50, A-498): 1.97 µM
- IC50 (Homo sapiens, A549, read-out: cell panel IC50, A-549): 2.26 µM
- IC50 (Homo sapiens, A-375, read-out: cell panel IC50, A375): 1.55 µM
- IC50 (Homo sapiens, A-427, read-out: cell panel IC50, A-427): 1.06 µM
- IC50 (Homo sapiens, ACHN, read-out: cell panel IC50, ACHN): 1.32 µM
- IC50 (Homo sapiens, AN3-CA, read-out: cell panel IC50, AN3 CA): 1.51 µM
- IC50 (Homo sapiens, AU565, read-out: cell panel IC50, AU-565): 3.96 µM
- IC50 (Homo sapiens, BT-20, read-out: cell panel IC50, BT-20): 13.2 µM
- IC50 (Homo sapiens, BT-549, read-out: cell panel IC50, BT-549): 4.84 µM
- IC50 (Homo sapiens, BXPC-3, read-out: cell panel IC50, BxPC-3): 2.29 µM
- IC50 (Homo sapiens, C-33-A, read-out: cell panel IC50, C-33 A): 1.98 µM
- IC50 (Homo sapiens, CAL-27, read-out: cell panel IC50, CAL 27): 3.08 µM
- IC50 (Homo sapiens, CCRF-CEM, read-out: cell panel IC50, CCRF-CEM): 3.21 µM
- IC50 (Homo sapiens, DLD-1, read-out: cell panel IC50, DLD-1): 3.13 µM
- IC50 (Homo sapiens, FaDu, read-out: cell panel IC50, FaDu): 2 µM
- IC50 (Homo sapiens, HCT-15, read-out: cell panel IC50, HCT-15): 2.11 µM
- IC50 (Homo sapiens, HCT-116, read-out: cell panel IC50, HCT-116): 2.68 µM
- IC50 (Homo sapiens, Hs-578T, read-out: cell panel IC50, Hs 578T): 3.48 µM
- IC50 (Homo sapiens, Jurkat E6.1, read-out: cell panel IC50, Jurkat E6.1): 1.06 µM
- IC50 (Homo sapiens, K562, read-out: cell panel IC50, K-562): 2.09 µM
- IC50 (Homo sapiens, LS174T, read-out: cell panel IC50, LS 174T): 3.52 µM
- IC50 (Homo sapiens, LoVo, read-out: cell panel IC50, LoVo): 0.962 µM
- IC50 (Homo sapiens, MG-63, read-out: cell panel IC50, MG-63): 3.37 µM
- IC50 (Homo sapiens, MOLT-4, read-out: cell panel IC50, MOLT-4): 0.828 µM
- IC50 (Homo sapiens, MeWo, read-out: cell panel IC50, MeWo): 3.42 µM
- IC50 (Homo sapiens, NCI-H82, read-out: cell panel IC50, NCI-H82): 2.28 µM
- IC50 (Homo sapiens, NCI-H460, read-out: cell panel IC50, NCI-H460): 3.43 µM
- IC50 (Homo sapiens, OVCAR-3, read-out: cell panel IC50, OVCAR-3): 8.63 µM
- IC50 (Homo sapiens, RPMI-7951, read-out: cell panel IC50, RPMI-7951): 3.67 µM
- IC50 (Homo sapiens, SHP77, read-out: cell panel IC50, SHP-77): 5.7 µM
- IC50 (Homo sapiens, SK-N-AS, read-out: cell panel IC50, SK-N-AS): 1.86 µM
- IC50 (Homo sapiens, SW48, read-out: cell panel IC50, SW48): 3.7 µM
- IC50 (Homo sapiens, SW480, read-out: cell panel IC50, SW480): 5.65 µM
- IC50 (Homo sapiens, SW-620, read-out: cell panel IC50, SW620): 2.54 µM
- IC50 (Homo sapiens, U-87 MG, 72 h, read-out: IC50 in cell proliferation assay (table S5 cellpanel data)): 5.75 µM

— PMC3961306, “Comparison of the Cancer Gene Targeting and Biochemical Selectivities of All Targeted Kinase Inhibitors Approved for Clinical Use” (PLoS ONE, 2014)
